“Also recorded” adds a separate entry of the source.
Assays:
pancreatic acini = experiment: Acinar-adipocyte co-culture; assay type: cell-based, mice
Description: Harvesting cells: Primary acinar cells from wild type mice (C57B6) were harvested and used as described previously. Viability, confirmed by trypan blue exclusion, was >95%. […] These were used in the individual experiments. Data presented is representative of 3 or more experiments. Acinar-adipocyte co-culture: This was done in 12-well companion plates with cell culture inserts (FIG. 14). […] Serum and medium cytokine assays: These were done for TNF-α, MCP-1, IL-6, resistin, and adiponectin using the fluorescence-based capture sandwich immunoassay based on the Luminex FlowMetrix system (Luminex). The Milliplex Mouse Adipokine Panel (7-Plex) 1 kit from Millipore (Billerica, Mass.) was used. Samples were analyzed using the Bio-Plex suspension array system, which included a fluorescent reader and Bio-Plex Manager analytical software (Bio-Rad Laboratories, Hercules, Calif.) at the University of Pittsburgh, Cancer Institute Luminex Core Facility. Visceral fat triglyceride composition: The visceral fat triglyceride composition analysis was done at Kennedy Krieger Institute (Baltimore, Md.). Briefly, total lipids were extracted by the method of Folch. […] The fatty acids were derivatized and analyzed by GCMS as their pentafluorbenzylbromide esters. ATP levels, cytochrome C release, and % LDH leakage were measured as previously described. Apoptosis was measured by active caspase-3 [western blotting, activity assays (Enzcheck, Invitrogen, Carlsbad, Calif.)], TUNEL assays, and Hoechst dye nuclear incorporation (8 mg/ml Hoechst 33342 added for 15 minutes after treatment). […] Results were reported as % of cells with given nuclear changes. These were counter stained with PI (1 μM) to stain necrotic cells (FIG. 7A, B, C) and imaged with a Zeiss Meta dual fluorescence confocal microscope. PI-positive cells were counted as late apoptosis or necrosis. […] Autophagy was studied by western blotting for LC3-I and II. RNA was extracted using Trizol (Invitrogen, Carlsbad, Calif.). mRNA levels of TNF-α, CXCL1, and CXCL2 were measured as described previously using real time-PCR performed on an ABI Prism 7000 Sequence Detection System (Applied Biosystems, Foster City, Calif.) on proprietary Taqman Gene Expression assay reagents (Applied Biosystems). Mitochondrial complex assays and citrate synthase assay were done as described previously.

adipocytes = experiment: Isoproterenol-stimulated glycerol release in adipocyte culture; assay type: cell-based
ob/ob mice = experiment: IL12+18 pancreatitis model; assay type: in vivo; conditions: for pancreatic changes: fat necrosis, saponification, peri-fat acinar necrosis, acinar necrosis, hypocalcemia (gross, histologic, biochemical): orlistat 50 mg/kg every 12 hours from 2 hours after induction; for serum SFA levels: orlistat vs IL+Veh group
Description: For histologic evaluation, we retrieved all hematoxylin and eosin-stained slides of the pancreas (1-4 in number) of control and acute pancreatitis patients. A trained pathologist with specific interest in gastrointestinal pathology blinded to demographic and clinical data examined the slides. Adipose tissue with large vessels and nerves not bounded by at least 2 pieces of pancreatic parenchyma was regarded as peripancreatic and excluded. The remaining adipose tissue, necrotic fat (bluish cheesy appearance of adipocytes), necrotic parenchyma, and parenchymal necrosis immediately contiguous to areas of fat necrosis (peri-fat acinar necrosis; PFAN) were additionally measured. All of these were measured as a percentage pixel area of each individual field after excluding dead space using Adobe Photoshop PS. The pixel areas of individual parameters for each case were added. The final number was divided by the number of fields to give a percentage area for that parameter in the section. For patients with more than 1 section, the average of the percentage of intrapancreatic fat for all fields from different sections was chosen as representative for the specimen. Von Kossa (to study fat necrosis, saponification), TUNEL (Terminal deoxynucleotidyl transferase dUTP nick end labeling), and oil red O staining were done per standard protocol.
Serum and medium cytokine assays: These were done for TNF-α, MCP-1, IL-6, resistin, and adiponectin using the fluorescence-based capture sandwich immunoassay based on the Luminex FlowMetrix system (Luminex). The Milliplex Mouse Adipokine Panel (7-Plex) 1 kit from Millipore (Billerica, Mass.) was used. Samples were analyzed using the Bio-Plex suspension array system, which included a fluorescent reader and Bio-Plex Manager analytical software (Bio-Rad Laboratories, Hercules, Calif.) at the University of Pittsburgh, Cancer Institute Luminex Core Facility.
Pancreatitis model: IL12+18 model: There were 8-12 animals in each group. Pancreatitis was induced as described previously in 8-10 week old female ob-ob (B6.V-Lepob/J) mice. Briefly, IL-12 (150 ng/dose/mouse) and IL-18 (750 ng/dose/mouse) were simultaneously given intraperitoneally in 2 doses, 24 hours apart. Orlistat at reduced dose than previously published (50 mg/kg) was administered in vehicle (0.1 ml 30% ethanol) as described previously. First injection of orlistat or vehicle was 2 hours after induction of pancreatitis, and these were then repeated every 12 hours.
Non-esterified fatty acid analysis: The sample was extracted with isopropanol-heptane-hydrochloric acid (1M) (40:10:1, v/v) by vortexing for 25-30 min and allowed to incubate at room temperature for 10 minutes. Heptane (4.0 ml) and water (2.0 ml) were added, and the tubes were thoroughly vortexed for 5 minutes. Tubes were centrifuged at 1000 g for 10 minutes at 4° C., and the upper phase (heptane) is transferred into 13×100 mm screw top tubes and dried in a SpeedVac centrifugal concentrator. Non-esterified fatty acids were derivatized with dimethylamine using the Deoxo-Fluor reagent. Non-esterified fatty acid concentrations are measured by gas chromatography separation with flame ionization detection using heptanoic acid as an internal standard. This derivatization method is very mild and efficient and is selective only towards non-esterified fatty acids so that no separation from a total lipid extract is required.

Male Wistar rats = experiment: Intraductal infusion of glyceryl trilinoleate (GTL) pancreatitis; assay type: in vivo
Procedure: Experiments were performed using a model, the technique of which is established and well described in rats (1, 2, 4, 7). This involves infusion of agents into the pancreatic duct to cause acute pancreatitis (1, 2, 4, 7). We will refer to this technique as “intraductal infusion”. We compared the severity of pancreatic damage and survival of rats after intraductal infusion of Glyceryl trilinoleate with and without the lipase inhibitor orlistat. In addition, we used a different lipase inhibitor-cetilistat (3, 6), and studied its efficacy in improving survival of rats in intraductal infusion pancreatitis induced with Glyceryl trilinoleate (GTL).
Male Wistar rats (250-350 gm), were anesthetized. Intraductal infusion of 0.1 ml (n=5) or 0.2 ml (n=5) of GTL (Sigma-Aldrich corporation) alone or GTL+orlistat (Caymen chemical, Ann Arbor, Mich.) (75 mg/ml, 0.1 ml n=5 or 0.2 ml n=5) or GTL+cetilistat (Jinan Wedo Industrial Co., Ltd., Jinan City, Shandong China) (25 mg/ml, 0.2 ml, n=10) was done as described previously (1, 2, 4, 7). All animals were given pain control (buprenorphine 200 mcg/kg BID), Cefazolin (100 mg/kg), and 10 cc saline subcutaneously BID as per the IACUC protocol. These were followed for survival.

mouse melanoma model = conditions: Carvalho et al., Int. J. Cancer 2008; cited from earlier work
[1] = orlistat 50 μM, acini co-cultured with adipocytes
[2] = orlistat 50 mg/kg every 12 hours
[3] = in combination with GTL, at necropsy

## CCCCCCCCCCC[C@@H](C[C@@H]1OC(=O)[C@H]1CCCCCC)OC(=O)[C@H](CC(C)C)NC=O [orlistat]
Pancreatic acini; 50 μM orlistat, basal, 100 pM and 100 nM caerulein
  amylase secretory response to caerulein after co-culture: amylase secretory pattern like control acini
Pancreatic acini; 50 μM orlistat, co-culture
  resistin levels in the medium: prevents increase in resistin
Pancreatic acini; [1]
  acinar cell viability and function: restored acinar cell viability and function to control levels
  co-culture induced acinar cell changes (necrosis: propidium iodide positivity, drop in ATP levels, cytochrome c leakage; NEFA and resistin increase in medium): completely prevented
adipocytes; 50 μM orlistat, 1 hour adipocyte culture
  10 μM isoprotrenol stimulated increase in glycerol levels: not significantly prevented
adipocytes; inferred from glycerol release experiment
  permeability through cell membranes: limited permeability; also recorded: low permeability
ob/ob mice; compared with IL or IL+Veh groups
  serum amylase and lipase levels: significantly reduced
ob/ob mice; [2]
  lung injury (apoptotic cells, lung MPO levels): significantly reduced
  mortality: significantly reduced
  renal end organ damage (BUN, tubular vacuoles, oil red O, TUNEL, mitochondrial swelling, saponification): normalized
  serum UFA levels: significantly reduced
  serum resistin, TNF-α, MCP-1 and IL-6: normalized
ob/ob mice
  pancreatic changes: fat necrosis, saponification, peri-fat acinar necrosis, acinar necrosis, hypocalcemia (gross, histologic, biochemical): prevents saponification
  serum SFA levels: not significantly reduced
ob/ob mice; listed as Orlistat
  pancreatic changes: fat necrosis, saponification, peri-fat acinar necrosis, acinar necrosis, hypocalcemia (gross, histologic, biochemical): significantly blocked
  serum SFA levels: did not significantly reduce
ob/ob mice; orlistat 50 mg/kg every 12 hours, listed as Orlistat
  renal end organ damage (BUN, tubular vacuoles, oil red O, TUNEL, mitochondrial swelling, saponification): reduces these
Male Wistar rats; dead/total, intraductal GTL alone, GTL+orlistat 75 mg/ml, GTL+cetilistat 25 mg/ml, followed to day 5
  mortality: 0/10
Male Wistar rats; [3]
  lung injury (TUNEL positive nuclei): absence of TUNEL positive nuclei
  renal injury (TUNEL positive nuclei): nearly completely prevented
Male Wistar rats; in combination with GTL, at necropsy, listed as Orlistat
  lung injury (TUNEL positive nuclei): nearly completely prevented
Male Wistar rats; intraductal GTL with or without lipase inhibitor
  gross pancreatic appearance: hemorrhages and necrosis: prevented the hemorrhages and necrosis up to 5 days
Mouse melanoma model
  apoptosis, cell growth and lymph node metastasis: promote apoptosis and reduce cell grown and lymph node metastasis

From US9943499B2, “Lipase inhibitors for the treatment of pancreatitis and organ failure” (priority 2011, dated 2018)
